Columns and labels:
σ1-receptor = target: T1, σ1-receptor (Cavia porcellus, UniProt Q60492); test: Sigma-1 receptor radioligand binding, [3H](+)-pentazocine, brain membranes; conditions: [3H](+)-pentazocine 0.5 nM, guinea pig brain membranes; for % Binding σ1 10^−7M: compound concentration 10^−7 M; for % Binding σ1 10^−8M: compound concentration 10^−8 M
T1 construct: guinea pig brains are homogenized; from tissue; host or cells: guinea pig brain membranes
Description: Brain membrane preparation and binding assays for the σ1-receptor are performed as described (DeHaven-Hudkins et al., 1992) with some modifications. In brief, guinea pig brains are homogenized in 10 vols. (w/v) of Tris-HCl 50 mM 0.32 M sucrose, pH 7.4 is centrifuged at 1000 g for 10 min at 4° C. and the supernatants collected and centrifuged again at 48000 g for 15 min at 4° C. The pellet is resuspended in 10 volumes of Tris-HCl buffer (50 mM, pH 7.4), incubated at 37° C. for 30 min, and centrifuged at 48000 g for 20 min at 4° C. Following this, the pellet is resuspended in fresh Tris-HCl buffer (50 mM, pH 7.4) and stored on ice until use.
Each assay tube contain 10 μL of [^3H](+)-pentazocine (final concentration of 0.5 nM), 900 μL of the tissue suspension to a final assay volume of 1 mL and a final tissue concentration of approximately 30 mg tissue net weight/mL. […] All tubes are incubated at 37° C. for 150 min before termination of the reaction by rapid filtration over Schleicher & Schuell GF 3362 glass fibre filters [previously soaked in a solution of 0.5% polyethylenimine for at least 1 h]. Filters are then washed four times with 4 mL of cold Tris-HCl buffer (50 mM, pH 7.4). Following addition of scintillation cocktail, the samples are allowed to equilibrate overnight. The amount of bound radioactivity is determined by liquid scintillation spectrometry using a Wallac Winspectral 1414 liquid scintillation counter. Protein concentrations are determined by the method of Lowry et al. (1951).

sigma 1 (σ-1) site = sigma 1 (σ-1) site (Homo sapiens, UniProt Q99720); conditions: background, in words; cited from earlier work
sigma (σ-2) site = sigma (σ-2) site (Homo sapiens, UniProt Q5BJF2); conditions: background, in words; cited from earlier work
sigma (σ-2) site, sequence (Q5BJF2 whole entry): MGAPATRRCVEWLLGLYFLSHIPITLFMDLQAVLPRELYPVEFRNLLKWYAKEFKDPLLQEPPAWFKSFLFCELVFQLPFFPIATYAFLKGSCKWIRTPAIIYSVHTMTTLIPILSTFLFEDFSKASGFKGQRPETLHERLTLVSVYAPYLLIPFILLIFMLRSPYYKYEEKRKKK

T1 sequence (Q60492 whole entry): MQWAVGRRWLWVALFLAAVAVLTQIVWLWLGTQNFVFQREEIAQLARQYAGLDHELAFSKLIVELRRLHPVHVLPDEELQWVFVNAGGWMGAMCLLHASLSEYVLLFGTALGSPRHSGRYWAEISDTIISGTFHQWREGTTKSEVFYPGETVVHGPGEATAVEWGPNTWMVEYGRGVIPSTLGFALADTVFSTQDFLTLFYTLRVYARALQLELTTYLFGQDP
sigma 1 (σ-1) site, sequence (Q99720 whole entry): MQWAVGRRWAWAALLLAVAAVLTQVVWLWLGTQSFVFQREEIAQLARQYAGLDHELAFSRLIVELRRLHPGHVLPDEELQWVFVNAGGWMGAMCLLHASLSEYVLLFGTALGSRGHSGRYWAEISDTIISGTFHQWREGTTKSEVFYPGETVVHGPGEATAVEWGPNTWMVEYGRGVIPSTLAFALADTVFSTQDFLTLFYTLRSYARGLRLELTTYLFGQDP

Compound	% Binding σ1 10^−7M (σ1-receptor) [%]	% Binding σ1 10^−8M (σ1-receptor) [%]	affinity for the sigma 1 (σ-1) site (sigma 1 (σ-1) site)	affinity for the sigma (σ-2) site (sigma (σ-2) site)
COC(=O)[C@H](c1ccccc1)N1C[C@H]2C=C(c3ccccc3)C(=O)[C@H]2C1 [Example 3]	31.3	28.0	–	–
COC(=O)[C@H](c1ccccc1)N1C[C@@H]2C=C(c3ccccc3)C(=O)[C@@H]2C1 [Example 4]	32.3	24.8	–	–
CCOC(=O)[C@H](C)N1C[C@H]2C=C(c3ccccc3)C(=O)[C@H]2C1 [Example 11]	33.2	25.6	–	–
CCOC(=O)[C@H](C)N1C[C@@H]2C=C(c3ccccc3)C(=O)[C@@H]2C1 [Example 12]	32.4	16.7	–	–
CCCCC1=C[C@@H]2CN([C@@H](C)C(=O)OCC)C[C@@H]2C1=O [Example 13, (2S)-ethyl2-((3aR,6aS)-5-butyloxo-1,3a,4,6a-tetrahydrocyclopenta[c]pyrrol-2(1H)-yl)propanoate]	26.9	17.6	–	–
CCCCC1=C[C@H]2CN([C@@H](C)C(=O)OCC)C[C@H]2C1=O [Example 14, (2S)-ethyl 2-((3aS,6aR)-5-butyl-4-oxo-1,3a,4,6a-tetrahydrocyclopenta[c]pyrrol-2(1H)-yl)propanoate]	39.6	28.8	–	–
SKF 10047	–	–	nanomolar	micromolar
